Assay results reported in ChEMBL document CHEMBL1125127 (J Med Chem, 1990).
Values belong to the compound of their own block, whether it stands above or below them.

Tests used:
Canis familiaris [1] = experiment: Percent change in blood pressure (BP) from control at active dose 10 mg/kg administered intraperitoneally in anesthetized dogs; assay type: functional, Canis lupus familiaris; conditions: route intraperitoneal
Canis familiaris [2] = experiment: Concentration that causes a 20% increase in APD95 (action potential duration at 95% repolarization) from control value in anesthetized dogs; assay type: functional, Canis lupus familiaris
Canis familiaris [3] = experiment: Percent change in blood pressure (BP) from control at active dose 0.1-10 mg/kg administered intraperitoneally in anesthetized dogs; assay type: functional, Canis lupus familiaris
Canis familiaris [4] = experiment: Percent change in FRP from control at active dose 0.1-10 mg/kg administered intravenously
Canis familiaris [5] = experiment: Percent change in FRP from control at active dose 10 mg/kg administered intraperitoneally in anesthetized dogs; assay type: functional, Canis lupus familiaris; conditions: route intraperitoneal
Canis familiaris [6] = experiment: Percent change in heart rate (HR) from control at active dose 0.1-10 mg/kg administered intraperitoneally in anesthetized dogs; assay type: functional, Canis lupus familiaris
[7] = target: Beta-2 adrenergic receptor (Canis lupus familiaris, UniProt P54833); experiment: Beta2-receptor selectivity in canine lung tissue in anesthetized dogs; assay type: functional
Canis familiaris [8] = experiment: Percent change in heart rate (HR) from control at active dose 10 mg/kg administered intraduodenally; conditions: route intraduodenal
Canis familiaris [9] = experiment: Concentration at which maximum change in […] was observed from control value in anesthetized dogs; The maximum observed change APD95 from control value and concentration at 100 uM when this occurred; assay type: functional, Canis lupus familiaris
Canis familiaris [10] = experiment: Percent change in heart rate (HR) from control at active dose 30 mg/kg administered intraduodenally; conditions: route intraduodenal
[11] = Ratio of number of active animals to number of treated at dose 30 mg/kg administered intraperitoneally in anesthetized dogs; No of animals tested=2; assay type: functional; conditions: route intraperitoneal
Canis familiaris [12] = experiment: Percent change in blood pressure (BP) from control at active dose 1.0-10 mg/kg administered intraperitoneally in anesthetized dogs; assay type: functional, Canis lupus familiaris
[13] = target: Beta adrenergic receptor (Canis familiaris)
Canis familiaris [14] = experiment: Percent change in heart rate (HR) from control at active dose 1.0-10 mg/kg administered intraperitoneally in anesthetized dogs; assay type: functional, Canis lupus familiaris
Canis familiaris [15] = experiment: Percent change in FRP from control at active dose 1.0-10 mg/kg administered intraperitoneally; assay type: functional, Canis lupus familiaris
[16] = (§1) Percent change in FRP from control at active dose 30 mg/kg administered intraperitoneally in anesthetized dogs; assay type: functional; conditions: route intraperitoneal
Canis familiaris [17] = experiment: Percent change in blood pressure (BP) from control at active dose 30 mg/kg administered intraperitoneally in anesthetized dogs; assay type: functional, Canis lupus familiaris; conditions: route intraperitoneal
Canis familiaris [18] = experiment: Percent change in blood pressure (BP) from control at active dose 0.3-3 mg/kg administered intraperitoneally in anesthetized dogs; assay type: functional, Canis lupus familiaris
Canis familiaris [19] = experiment: Percent change in heart rate (HR) from control at active dose 1.0-10 mg/kg administered intraduodenally
Canis familiaris [20] = experiment: Concentration at which maximum change in […] was observed from control value in anesthetized dogs; The maximum observed change APD95 from control value and concentration at 30 uM when this occurred; assay type: functional, Canis lupus familiaris
Canis familiaris [21] = experiment: Percent change in FRP from control at active dose 0.3-3 mg/kg administered intravenously
Canis familiaris [22] = experiment: Percent change in FRP from control at active dose 1.0-10 mg/kg administered intraduodenally in anesthetized dogs
Canis familiaris [23] = experiment: Percent change in heart rate (HR) from control at active dose 0.3-3 mg/kg administered intravenously in conscious dogs
Canis familiaris [24] = experiment: Percent change in FRP from control at active dose 0.1-3.0 mg/kg administered intravenously
Canis familiaris [25] = experiment: Percent change in heart rate (HR) from control at active dose 0.1-3.0 mg/kg administered intravenously in conscious dogs
Canis familiaris [26] = experiment: Percent change in blood pressure (BP) from control at active dose 0.1-3.0 mg/kg administered intraperitoneally in anesthetized dogs; assay type: functional, Canis lupus familiaris
Canis familiaris [27] = experiment: Percent change in heart rate (HR) from control at active dose 30 mg/kg administered intraperitoneally; assay type: functional, Canis lupus familiaris; conditions: route intraperitoneal
Canis familiaris [28] = experiment: as §1; assay type: functional, Canis lupus familiaris; conditions: route intraperitoneal
[29] = Ratio of number of active animals to number of treated at dose 22-30 mg/kg administered intraperitoneally in anesthetized dogs; No of animals tested=2; assay type: functional
Canis familiaris [30] = experiment: Percent change in heart rate (HR) from control at active dose 22-30 mg/kg administered intraduodenally
Canis familiaris [31] = experiment: Percent change in FRP from control at active dose 22-30 mg/kg administered intraduodenally in anesthetized dogs
Canis familiaris [32] = experiment: Percent change in blood pressure (BP) from control at active dose 22-30 mg/kg administered intraperitoneally in anesthetized dogs; assay type: functional, Canis lupus familiaris
Canis familiaris [33] = experiment: Percent change in blood pressure (BP) from control at active dose 1.0-10 mg/kg administered intravenously in anesthetized dogs
Canis familiaris [34] = experiment: Maximum change in […] from control value in anesthetized dogs; 10 uM.; assay type: functional, Canis lupus familiaris
Canis familiaris [35] = experiment: Percent change in heart rate (HR) from control at active dose 1.0-10 mg/kg administered intravenously in conscious dogs
Canis familiaris [36] = experiment: Percent change in FRP from control at active dose 1.0-10 mg/kg administered intravenously

Sequence of Beta-2 adrenergic receptor (P54833 whole entry): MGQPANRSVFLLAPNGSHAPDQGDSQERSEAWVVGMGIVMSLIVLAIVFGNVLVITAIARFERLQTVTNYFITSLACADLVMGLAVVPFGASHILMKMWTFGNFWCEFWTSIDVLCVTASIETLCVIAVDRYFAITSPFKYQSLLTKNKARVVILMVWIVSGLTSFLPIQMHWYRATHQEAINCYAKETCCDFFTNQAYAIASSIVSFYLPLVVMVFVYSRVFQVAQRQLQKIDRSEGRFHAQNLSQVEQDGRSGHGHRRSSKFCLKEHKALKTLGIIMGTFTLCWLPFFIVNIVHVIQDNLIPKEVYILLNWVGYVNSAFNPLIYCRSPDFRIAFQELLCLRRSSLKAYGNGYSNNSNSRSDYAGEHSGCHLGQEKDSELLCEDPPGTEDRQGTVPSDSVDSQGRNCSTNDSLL

Compound: O=C(NCCNCC(O)COc1cccc2ccccc12)c1ccc(-n2ccnc2)cc1 (stereo unspecified)
Change (Canis familiaris [10]): -15% | Ratio [11]: 2 | C20 (Canis familiaris [2]): 1.8 µM | Change (Canis familiaris [12]): -5% | IC50 [13]: 0.42 µM | Change (Canis familiaris [14]): 24% | Change (Canis familiaris [15]): 6% | Max delta (Canis familiaris [9]): 57% | Change [16]: 13% | Change (Canis familiaris [17]): 16%

Compound: CS(=O)(=O)Nc1ccc(OC[C@@H](O)CNCCOc2ccc(-n3ccnc3)cc2)cc1 (stereo in doubt; 1) [ERSENTILIDE]
Change (Canis familiaris [18]): 3% | Change (Canis familiaris [19]): -16% | Max delta (Canis familiaris [20]): 92% | Change (Canis familiaris [21]): 13% | C20 APD95 (Canis familiaris [2]): 0.4 µM | Change (Canis familiaris [12]): 3% | Change (Canis familiaris [22]): 27% | IC50 [7]: 46.5 µM | Change (Canis familiaris [23]): 9%

Compound: CS(=O)(=O)Nc1ccc(OC[C@@H](O)CNCCOc2ccc(-n3ccnc3)cc2)cc1 (stereo in doubt; (S)-1) [ERSENTILIDE]
Change (Canis familiaris [24]): 5% | Change (Canis familiaris [25]): -2% | Max delta (Canis familiaris [20]): 73% | C20 APD95 (Canis familiaris [2]): 1.8 µM | Change (Canis familiaris [26]): 4% | IC50 [7]: 50 µM

Compound: CS(=O)(=O)Nc1ccc(N2CCN(CC(O)CON=C(C3CC3)C3CC3)CC2)cc1 (stereo unspecified)
Change (Canis familiaris [27]): -17% | Ratio [11]: 1 | Max delta (Canis familiaris [20]): 45% | C20 (Canis familiaris [2]): 8 µM | Change (Canis familiaris [12]): 8% | Change (Canis familiaris [14]): 9% | Change (Canis familiaris [15]): 6% | Change (Canis familiaris [17]): 17% | Change (Canis familiaris [28]): 15%

Compound: Cc1cccc(OCC(O)CNCCOc2ccc(-n3ccnc3)cc2)c1 (stereo unspecified)
Change (Canis familiaris [33]): -4% | Max delta (Canis familiaris [34]): 35% | C20 APD95 (Canis familiaris [2]): 10 µM | IC50 [7]: 0.51 µM | Change (Canis familiaris [35]): -12% | Change (Canis familiaris [36]): 9%

Second part, led by results:

IC50 [7]: 5.7 µM
Compound: CS(=O)(=O)Nc1ccc(C(O)CNCCOc2ccc(-n3ccnc3)cc2)cc1 (stereo unspecified)
Change (Canis familiaris [1]): 17% | C20 APD95 (Canis familiaris [2]): <1 µM | Change (Canis familiaris [3]): -4% | Change (Canis familiaris [4]): 15% | Change (Canis familiaris [5]): 24% | Change (Canis familiaris [6]): 1% | Change (Canis familiaris [8]): -18% | Max delta (Canis familiaris [9]): 155%

IC50 [13]: 61.4 µM
Compound: COc1ccc(OCC(O)CNCCNC(=O)c2ccc(-n3ccnc3)cc2)cc1 (stereo unspecified)
No. effective [29]: 2 | Change (Canis familiaris [30]): -35% | Max delta (Canis familiaris [20]): 47% | C20 (Canis familiaris [2]): 6.6 µM | Change (Canis familiaris [31]): 24% | Change (Canis familiaris [32]): -1%
